Experimental findings from PubChem BioAssay AID1549 (Sanford-Burnham Center for Chemical Genomics, 2009) are described below.

The structures appear in SMILES notation. Activity calls are given as the source filed them. How the calls were made is not given here. Bounds are passed on as bounds.

This experiment deals with Influenza A virus M2 proton channel (A/TW/4845/1999 H1N1). Nature of the experiment: NMR binding screen, influenza A virus M2 proton channel, Kd (AID 1549). The settings on record: M2 protein.
With `O=C(NN1CCOCC1)c1ccccc1F`, the Kd is > 4 mM (inactive). Next, `Nc1cc(=O)[nH]c(SCC(=O)NC2CCCCC2)n1`: > 4 mM (inactive); `Cc1nc2ccccc2c(=O)n1CCCn1ccnc1`: > 4 mM (inactive). For `CCOc1ccc(C(=O)c2ccc(OC)c(O)c2O)cc1` the value was > 4 mM (inactive). Next, `C=C1C(=O)O[C@@H]2C[C@@]3(C)CCC[C@H](C)C3=C[C@H]12`: > 4 mM (inactive); `Nc1c(N2CCCC2)cnn(-c2ccccc2)c1=O`: > 4 mM (inactive). Turning to `CCn1nccc1C(=O)Nc1ccc(Cl)cc1Cl`, the Kd was > 4 mM (inactive). For `Cc1cc(C(=O)N2CCC3(CC2)OCCO3)cs1` the value was > 4 mM (inactive). For `CC(C)=CCc1c(O)cc2oc(C)cc(=O)c2c1O` the value was > 4 mM (inactive); for `CCC(=O)NC(=S)Nc1ccc(N2CCOCC2)cc1`, > 4 mM (inactive); for `c1csc(-c2nnc3ccccn23)c1`, > 4 mM (inactive). Turning to `C=C(C)C1CC=C(CO)CC1` (configuration not stated), the Kd is > 4 mM (inactive). Consider `CCC(=O)Nc1cccc(NC(C)=O)c1`, for which the Kd was > 4 mM (inactive). Next, `Cc1cc(=O)[nH]c(N2CCN(Cc3ccccc3)CC2)n1`: > 4 mM (inactive); `Nc1cccc(NC(=O)c2ccco2)c1`: > 4 mM (inactive); `Nc1cccc(C(=O)Nc2ccc(N)cc2Cl)c1`: > 4 mM (inactive). For `COc1ccc(-c2cc(=O)c3c(O)cc(O[C@H]4O[C@H](CO[C@@H]5O[C@@H](C)[C@H](O)[C@@H](O)[C@H]5O)[C@@H](O)[C@H](O)[C@H]4O)cc3o2)cc1` the value was > 4 mM (inactive); for `Cn1cccc1C(=S)N1CCOCC1`, > 4 mM (inactive). As to `O=C1C=C(Nc2ccc(O)cc2)c2ccccc2C1=O`, the Kd is > 4 mM (inactive). Turning to `O=C1NC(=S)N/C1=C\c1ccccc1`, the Kd was > 4 mM (inactive). Consider `Cc1ccc(-n2nnnc2SCC(N)=O)c(C)c1`, for which the Kd is > 4 mM (inactive).

With `Cc1occc1C(=O)NCc1ccccc1F`, the Kd is > 4 mM (inactive). Next, `Cc1onc(-c2ccccc2)c1C(=O)O`: > 4 mM (inactive); `O=c1c(O)cc([C@H]2Oc3cc(O)cc(O)c3C[C@H]2O)cc2c([C@H]3Oc4cc(O)cc(O)c4C[C@H]3O)cc(O)c(O)c12`: > 4 mM (inactive). On to `Cn1nnc2cc(C(=O)Nc3cccnc3)ccc21`, for which the Kd is > 4 mM (inactive). Next, `CN1C(=O)c2ccc(N=C3NC(=O)CS3)cc2C1=O`: > 4 mM (inactive); `O=C(Nc1ccc(Cl)cn1)c1cnn2cccnc12`: > 4 mM (inactive); `Cc1ccccc1NS(=O)(=O)c1ccc(F)cc1`: > 4 mM (inactive). Next, `CN(C)C(=O)CSc1nc2ccccc2c(=O)[nH]1`: > 4 mM (inactive). For `C[N+](C)(C)CC(=O)[O-]` the value was > 4 mM (inactive); for `Cc1ccc(C(=O)N2CCOCC2)cc1Cl`, > 4 mM (inactive); for `Cc1ccc(-n2ncc(C#N)c2/N=C/N(C)C)cc1`, > 4 mM (inactive).

Regarding `Cc1nn(C)c(C)c1NC(=S)NC1CCCC1`, the Kd was > 4 mM (inactive).

With `O=C1C2CCCCC2C(=O)N1c1ccc(O)cc1` (configuration not stated), the Kd is > 4 mM (inactive).

For `O=C(CSc1nc2ccccc2[nH]1)N1CCCCC1`, the Kd was > 4 mM (inactive). Next, `COc1cc(OC)cc(-c2nc(N)n[nH]2)c1`: > 4 mM (inactive); `CNC(=S)Nc1ccc(C(=O)O)cc1`: > 4 mM (inactive).

In the case of `c1ccc(Cc2nnc3sc(-c4ccncc4)nn23)cc1`, the Kd was > 4 mM (inactive). For the molecule `Cc1ccc(NC(=O)N2CCC(C(N)=O)CC2)cc1`, the Kd is > 4 mM (inactive).

As to `Cc1cc(C)cc(OC(=O)N2CCOCC2)c1`, the Kd is > 4 mM (inactive). Next, `NCc1cn2ccccc2n1`: > 4 mM (inactive); `c1coc(CNc2ncnc3nc[nH]c23)c1`: > 4 mM (inactive). For `CC1(C)C(=O)CC[C@@]2(C)C1C[C@@H](O)[C@@]1(C)C3=CC(=O)O[C@@H](c4ccoc4)[C@]3(C)CCC21` (some centres not stated) the value was > 4 mM (inactive); for `c1ccc2[nH]c(-c3cscn3)nc2c1`, > 4 mM (inactive); for `CC(C)=CC(=O)Nc1ccccc1Br`, > 4 mM (inactive).

As for `O=C(Nc1nncs1)c1c(F)cccc1F`, the Kd is > 4 mM (inactive). For `CC1CCN(S(=O)(=O)N(C)C)CC1` the value was > 4 mM (inactive). Next, `CC1(C)C2CC[C@]3(C)C(C(=O)C=C4[C@H]5C[C@@](C)(C(=O)O)CC[C@]5(C)CC[C@]43C)[C@@]2(C)CC[C@@H]1O` (some centres not stated): > 4 mM (inactive); `Cc1c(C)c2c(c(C)c1O)CCC(C)(CCCC(C)CCCC(C)CCCC(C)C)O2` (configuration not stated): > 4 mM (inactive). Next, `Nc1nsc(-c2ccccc2)n1`: > 4 mM (inactive). On to `OCC1COc2ccccc2O1` (configuration not stated), for which the Kd is > 4 mM (inactive). As for `CNC(=O)c1ccccc1-c1ccccc1`, the Kd was > 4 mM (inactive).

`CCOC(=O)c1c(C)[nH]c2ccc(O)cc12`: the Kd was > 4 mM (inactive). Next, `NN1C(=O)CSC1=Nc1ccccc1`: > 4 mM (inactive); `CC(=O)Nc1ccc(S(N)(=O)=O)cc1`: > 4 mM (inactive). Next, `CCOc1nc(C)ccc1-c1noc(-c2ccncc2)n1`: > 4 mM (inactive); `CCC(=O)n1nc(-c2ccco2)nc1N`: > 4 mM (inactive). For `NC(=O)Cc1nc(-c2ccccc2)cs1` the value was > 4 mM (inactive); for `Nc1cc(=O)[nH]c(=O)n1Cc1ccco1`, > 4 mM (inactive); for `CCOC(=O)CC1NCCNC1=O` (configuration not stated), > 4 mM (inactive). Regarding `CC(C)=CCc1c2c(c(O)c3c(=O)c(O)c(-c4ccccc4)oc13)C=CC(C)(C)O2`, the Kd was > 4 mM (inactive). With `CC(=O)OC1CCC23CC1(C)CCC2C(C)(C)CC3OC(C)=O` (configuration not stated), the Kd was > 4 mM (inactive). For `O=C1CSC(=Nc2ccc(F)cc2)N1` the value was > 4 mM (inactive); for `O=C(NCO)c1ccc([N+](=O)[O-])cc1`, > 4 mM (inactive). Next, `COC(=O)[C@@H]1OC(=O)[C@H]2O[C@@]23[C@@]1(C)CCC1[C@@]2(C)CCC(=O)C(C)(C)C2C[C@@H](OC(C)=O)[C@]13C` (some centres not stated): > 4 mM (inactive). As for `COc1c(O)cc2oc3cc(O)c(CC=C(C)C)c(O)c3c(=O)c2c1CC=C(C)C`, the Kd is > 4 mM (inactive). Take `Cc1cc(C(=O)NCc2cccnc2)cs1`: the Kd was > 4 mM (inactive).

Take `CC1=CC(=O)NC2C=CC=CC12` (configuration not stated): the Kd was > 4 mM (inactive).

Consider `Cc1cc(C(=O)Nc2sc(C)c(C)c2C#N)no1`, for which the Kd was > 4 mM (inactive).

As for `Nc1cccc(S(=O)(=O)N2CCOCC2)c1`, the Kd was > 4 mM (inactive).

Consider `CCOC(=O)c1ccc2c(c1)nnn2C`, for which the Kd is > 4 mM (inactive). For `Cc1cc(C(=O)NCc2cccnc2)no1` the value was > 4 mM (inactive). Next, `NC1=NC(=O)C(Cc2ccccc2)S1` (configuration not stated): > 4 mM (inactive); `O=C(O)CN1C(=O)c2ccc(C(=O)O)cc2C1=O`: > 4 mM (inactive). Next, `O=C(CN1CCOCC1)Nc1nccs1`: > 4 mM (inactive); `Cc1nc(-c2cccc(N)c2)cs1`: > 4 mM (inactive); `N#CCN1C(=O)c2ccccc2S1(=O)=O`: > 4 mM (inactive). On to `COCc1cc(Cl)nc(-c2csc(C)n2)n1`, for which the Kd was > 4 mM (inactive). For the molecule `COc1ccc(C(=O)/C=C2\NC(=S)NC2=O)cc1`, the Kd is > 4 mM (inactive). For `COc1cccc(Oc2ccc(N)cn2)c1` the value was > 4 mM (inactive); for `CC(=O)CS(=O)(=O)c1ccccc1`, > 4 mM (inactive). Turning to `Cn1nc(C(=O)N2CCCC2)c2ccccc2c1=O`, the Kd is > 4 mM (inactive). In the case of `Cc1cc(SCCF)n2ncnc2n1`, the Kd is > 4 mM (inactive). Next, `CC(=O)O[C@H]1CCC2(C)C3=C(CCC2C1(C)C)[C@@]1(C)CC[C@@H](C(C)CCC=C(C)C)[C@]1(C)CC3` (some centres not stated): > 4 mM (inactive); `Nc1cccc(C(=O)c2ccccc2)c1`: > 4 mM (inactive). For `COc1cc2ccc(=O)oc2c2ccoc12` the value was > 4 mM (inactive); for `Cc1nnsc1C(=O)Nc1ccccn1`, > 4 mM (inactive). Next, `Nc1cc(N)nc(SCc2ccccc2)n1`: > 4 mM (inactive); `NC[C@H]1O[C@H](O[C@H]2[C@H](O)[C@@H](O[C@H]3O[C@H](CO)[C@@H](O)[C@H](N)[C@H]3O)[C@H](N)C[C@@H]2N)[C@H](N)[C@@H](O)[C@@H]1O`: > 4 mM (inactive).

`Cn1nnc2c(N3CCC(C(N)=O)CC3)ncnc21`: the Kd was > 4 mM (inactive). For `S=C(Cc1cccnc1)N1CCOCC1` the value was > 4 mM (inactive). For `Cn1c(=O)n(CC(=O)N2CCOCC2)c2ccccc21` the value was > 4 mM (inactive). For `CN(C)c1nc(N2CCOCC2)c2cnn(C)c2n1` the value was > 4 mM (inactive); for `NC1=NC(=O)C(CC(=O)Nc2ccccc2F)S1` (configuration not stated), > 4 mM (inactive); for `COc1ccc(N2C(=N)C(C)(C)NC2=O)cc1`, > 4 mM (inactive). Turning to `CC(=O)c1c(C)nc(-c2ccc(Cl)cc2Cl)n1O`, the Kd was > 4 mM (inactive).

As to `c1ccc(CNc2ncnc3nc[nH]c23)nc1`, the Kd was > 4 mM (inactive). Next, `Cn1c(=O)c2c([nH]c(=O)n2C)n(C)c1=O`: > 4 mM (inactive); `N#Cc1nc(-c2ccccc2Cl)oc1N1CCOCC1`: > 4 mM (inactive); `CC(=O)Nc1ccc(NC(=O)C2CC2)cc1`: > 4 mM (inactive). Next, `c1ccn(Cc2ccncc2)c1`: > 4 mM (inactive); `CN1CCC(=NNC(=O)c2ccco2)CC1`: > 4 mM (inactive).
